According to US9382229B2, “Compounds and methods of use thereof for treating neurodegenerative disorders” (THE JOHNS HOPKINS UNIVERSITY, priority 2011, dated 2016):

Tests used:
[1] = system: retinal ganglion cells (RGCs); experiment: RGC cell survival assay with murine purified RGCs, 3 days in culture (Calcein AM/Hoechst/Ethidium homodimer staining, Cellomics imager); format: cell-based, mouse; conditions: for RGC survival: purified mouse RGCs cultured 3 days with 25-5000 nM compound
Procedure: RGCs were purified from 2-5 day-old C57BL/6 mice, and cultured for 3 days in a media containing Neurobasal and B27, with or without 25-5000 nM of sunitinib (sun) or VX680. RGC survival was determined by combined staining with Calcein A M, Hoescht, and Ethidium homodimer. Images were acquired and analyzed with a Cellomics imager. Error bars: Mean±S.E.M.;
(§1) Purified mouse RGCs were cultured in the presence of sunitinib (0.5 μM), 25-5000 nM of VX680, JHU611 or JHU612, for 3 days. RGC survival was determined by combined staining with Calcein A M, Hoescht, and Ethidium homodimer. Images were acquired and analyzed with a Cellomics imager. Error bars: Mean±S.E.M.;
as §1, with “JHU609” for “JHU611”, “JHU610,” for “JHU612,”
as §1, with “JHU607” for “JHU611”, “JHU608,” for “JHU612,”, “days. The percentages of” for “days.”
RGCs were cultured with the indicated drug at the indicated concentration, cultured, and survival was monitored using a calcein AM assay with a Cellomics VTI imager (Thermo Scientific, 100 Technology Drive, Pittsburgh, Pa.) and image analysis software.

[2] = system: primary murine retinal ganglion cells (RGCs); experiment: RGC-based high content screen of small molecule libraries (CellTiter-Glo ATP, PI/Hoechst staining); format: cell-based, mouse; conditions: purified primary murine RGCs, CellTiter-Glo or PI/Hoechst
Procedure: Survival of purified mouse RGCs with increasing concentrations of VX680 (tozasertib) was determined by measuring cellular ATP levels with CellTiter-Glo (CTG), or by combined staining with Propidium iodide (PI) and Hoescht (Hoe) (PI/Hoe) (FIG. 8A). The efficacy in promoting primary mouse RGC survival by VX680 and NCGC00188382-01 was quantified and compared to sunitinib (FIGS. 8B and 8C).

[3] = system: retinal ganglion cells (RGCs); experiment: Time course of RGC cell survival with murine purified RGCs, up to 6 days in vitro; format: cell-based, mouse; conditions: for RGC survival: 6 days in vitro (DIV6), percent survival compared to zero time per FIG. 2 legend, Mean±S.E.M.
Procedure: FIG. 2 is a comparison of the relative efficacy of sunitinib, VX680 and neurotrophic factors in promoting RGC survival in vitro. […] Purified mouse RGCs were cultured in the presence of sunitinib (0.5 or 1 μM), VX680 (1 or 2 μM), and a combination of BDNF, CNTF, and GDNF, for up to 6 days. RGC survival (percent survival compared to zero time) was determined at the indicated day in vitro (DIV) (0, 1, 2, 3, and 6 DIV). Error bars: Mean±S.E.M.;
FIG. 3 is representative images showing the RGCs from the study described in FIG. 2;
For comparison, data from vehicle and BDNF/CNTF/GDNF also are shown.

hippocampal neurons = experiment: Hippocampal neuron survival against 3-nitropropionic acid (3-NP) induced cell death, MTT assay; format: cell-based; conditions: cell death induced by 3-NP, VX680 at 0.5, 1, 5 and 10 μM
Procedure: Cell death of hippocampal neurons was induced by the mitochondrial toxin 3-nitropropionic acid (3-NP). VX680 was added to the media at concentrations of 0.5 μM, 1 μM, 5 μM and 10 μM. Cell survival was determined using a MTT assay. The effect of VX680 on cell survival was analyzed with the student t-test. Error bars: Mean±S.D.; and […]

## Cc1cc(Nc2nc(Cl)nc(Sc3ccc(NC(=O)C4CC4)cc3)n2)n[nH]1 [JHU607, N-(4-(4-chloro-6-(5-methyl-1H-pyrazol-3-ylamino)-1,3,5-triazin-2-ylthio)phenyl)cyclopropanecarboxamide]
[1]
  RGC survival: promote RGC survival

## Cc1cc(Nc2nc(Sc3ccc(NC(=O)C4CC4)cc3)nc(N3CCNCC3)n2)n[nH]1 [JHU608, N-(4-(4-(5-methyl-1H-pyrazol-3-ylamino)-6-(piperazin-1-yl)-1,3,5-triazin-2-ylthio)phenyl)cyclopropanecarboxamide]
[1]
  RGC survival: promote RGC survival

## Cc1cc(Nc2nc(Sc3ccc(NC(=O)C4CC4)cc3)nc(N3CCOCC3)n2)n[nH]1 [JHU609, N-(4-(4-(5-methyl-1H-pyrazol-3-ylamino)-6-morpholino-1,3,5-triazin-2-ylthio)phenyl)cyclopropanecarboxamide]
[1]
  RGC survival: promote RGC survival

## Cc1cc(Nc2nc(Sc3ccc(NC(=O)C4CC4)cc3)nc(N3CCC(N4CCCC4)CC3)n2)n[nH]1 [JHU610, N-(4-(4-(5-methyl-1H-pyrazol-3-ylamino)-6-(4-(pyrrolidin-1-yl)piperidin-1-yl)-1,3,5-triazin-2-ylthio)phenyl)cyclopropanecarboxamide]
[1]
  RGC survival: promote RGC survival

## Cc1cc(Nc2nc(Sc3ccc(NC(=O)C4CC4)cc3)nc(N3CCC(O)CC3)n2)n[nH]1 [JHU611, N-(4-(4-(4-hydroxypiperidin-1-yl)-6-(5-methyl-1H-pyrazol-3-ylamino)-1,3,5-triazin-2-ylthio)phenyl)cyclopropanecarboxamide]
[1]
  RGC survival: promote RGC survival

## Cc1cc(Nc2nc(Sc3ccc(NC(=O)C4CC4)cc3)nc(N3CCCNCC3)n2)n[nH]1 [JHU612, N-(4-(4-(1,4-diazepan-1-yl)-6-(5-methyl-1H-pyrazol-3-ylamino)-1,3,5-triazin-2-ylthio)phenyl)cyclopropanecarboxamide]
[1]
  RGC survival: promote RGC survival

## CC(NCc1ccc2c(c1)nc(NC(=O)c1ccc(-c3cn[nH]c3)s1)n2CC(C)(C)O)C(C)(C)C (stereo not drawn) [NCGC00188382-01]
[2]
  RGC survival / neuroprotection in high content screen: neuroprotective compounds

## CCN(CC)CCNC(=O)c1c(C)[nH]c(/C=C2\C(=O)Nc3ccc(F)cc32)c1C [Sunitinib, sunitinib]
[3]; 0.5 μM
  RGC survival: 23.73 ± 1.17
[3]; 1 μM
  RGC survival: 26.37 ± 1.61

## Cc1cc(Nc2cc(N3CCN(C)CC3)nc(Sc3ccc(NC(=O)C4CC4)cc3)n2)[nH]n1 [VX-680, Tozasertib]
Hippocampal neurons
  survival of hippocampal neurons: promotes the survival of hippocampal neurons against mitochondrial injury and oxidative stress
[3]; 1 μM
  RGC survival: 49.66 ± 2.27
[3]; 2 μM
  RGC survival: 60.32 ± 2.47
[3]; FIG. 2, time course 0-6 DIV
  neuroprotective activity compared with sunitinib and BDNF/CNTF/GDNF combination: exceeds that of sunitinib and a combination of brain derived neurotrophic factor (BDNF) ciliary neurotrophic factor (CNTF), and glial-derived neurotrophic factor (GDNF)
[2]
  RGC survival / neuroprotection in high content screen: could promote the survival of cultured RGCs
[2]; listed as VX680
  RGC survival / neuroprotection in high content screen: neuroprotective compounds
[1]; FIG. 1, murine purified RGCs
  therapeutic window compared with sunitinib: wider therapeutic window
[1]; FIG. 1, murine purified RGCs, calcein AM assay, sunitinib as positive control
  cell survival promoting activity compared with sunitinib: more potent cell survival promoting activity than sunitinib
[1]
  RGC survival: promotes retinal ganglion cell (RGC) survival in vitro
